The values below come from article PMC7076013 (Scientific Reports, 2020).

Holding throughout (assay type): cell-based, human
The test system of assay [1] is 518A2 cells. As to the kind of experiment: Ann/PI apoptosis and caspase activation, 518A2. Conditions: 518A2, 48 h.
The subject of assay [2] is A375 cells. As to the kind of experiment: Intracellular ROS/RNS (DHR), A375. As to conditions: A375, 48 h; untreated 22.3 ± 5. How it is done:
(§1) Given that analogue 5 is designed for NO release, the intracellular release of nitric oxide and production of reactive oxygen species (ROS)/reactive nitrogen species (RNS) was measured by means of redox-sensitive dyes — 4-amino-5-methylamino-2′,7′-difluorofluorescein diacetate (DAF) and dihydrorhodamine-123 (DHR) — after exposure for 48 h (Fig. 11). […] It is well documented that highly intensified production of ROS/RNS is connected with extreme cell damage and consequent cell death, whereas moderate ROS production is involved in the regulation of intracellular processes often involved in cell cycle arrest, proliferation, and differentiation[63],[64]. Apart from the moderate intracellular NO release, it was important to evaluate whether 5 released NO extracellularly. The production of NO from a nitrate group is a three-electron reduction process that can happen by a number of possible 2e^– and 1e^– pathways, commonly involving the initial liberation of a nitrite. A common method of detecting the release of NO in the extracellular compartment is the detection of nitrite ions by the Griess reaction, which quantifies the nitrite resulting from the oxidation of NO[66],[67]. […] Introduction of a nitrate moiety was also found to be beneficial in the case of rofecoxib. […]

The test system of assay [3] is A375 cells. As to the kind of experiment: CFSE cell proliferation, A375. Conditions: A375, 72 h. How it is done: (§2) It was observed that the wound in the control of the A375 cells decreased from 172 ± 69 μm to 127 ± 13 μm, compared to the treated cells where it stayed at 177 ± 32 μm. […] (Fig. 10A).To confirm this, the cell proliferation rate was determined after 72 h of incubation in the presence of 5 of the carboxyfluorescein succinimidyl ester (CFSE)-stained cells. […] These findings were further confirmed by fluorescence microscopy of 4′,6-diamidino-2-phenylindole (DAPI)-stained cells (Fig. 10C), for which predominantly large nuclei with scarce nucleoli characteristic for interphase were observed on treatment of A375 cells with 5[60]. In addition, sporadic oblong nuclei with condensed chromatin, typical for apoptosis, were also observed (25 ± 9%). On the other hand in the DAPI-stained 518A2 cells typical apoptotic shrunken nuclei and apoptotic bodies were dominant (60 ± 2%)[61]. The different modes of action on the two melanoma cell lines indicate that cell specific characteristics define the outcome of the treatment with 5. […] Recent data on the compensatory proliferation in response to induced apoptotic cell death in the tumor tissue even favor a nonaggressive approach in the therapy of advanced malignancy. […]
(§3) To quantify cell division rate, cells were incubated for 10 min at 37 °C in the presence of […]
(§4) subsequentl y quantified using flow c ytomet r y. […]

The subject of assay [4] is 518A2 cells. As to the kind of experiment: Scratch (wound healing) test, 518A2. Conditions: 518A2, IC50 dose, 48 h. As for the experimental part:
as §2, §3, §4

The subject of assay [5] is A375 cells. The experiment in a line: Fluorescence microscopy of DAPI-stained cells, A375. Conditions: A375, 72 h. As for the experimental part:
(§5) It was observed that the wound in the control of the A375 cells decreased from 172 ± 69 μm to 127 ± 13 μm, compared to the treated cells where it stayed at 177 ± 32 μm. […] (Fig. 10A).To confirm this, the cell proliferation rate was determined after 72 h of incubation in the presence of 5 of the carboxyfluorescein succinimidyl ester (CFSE)-stained cells. […] These findings were further confirmed by fluorescence microscopy of 4′,6-diamidino-2-phenylindole (DAPI)-stained cells (Fig. 10C), for which predominantly large nuclei with scarce nucleoli characteristic for interphase were observed on treatment of A375 cells with 5[60]. In addition, sporadic oblong nuclei with condensed chromatin, typical for apoptosis, were also observed (25 ± 9%). On the other hand in the DAPI-stained 518A2 cells typical apoptotic shrunken nuclei and apoptotic bodies were dominant (60 ± 2%)[61]. The different modes of action on the two melanoma cell lines indicate that cell specific characteristics define the outcome of the treatment with 5. […] Recent data on the compensatory proliferation in response to induced apoptotic cell death in the tumor tissue even favor a nonaggressive approach in the therapy of advanced malignancy.

The subject of assay [6] is A375 cells. As to the kind of experiment: Intracellular NO (DAF), A375. Conditions: A375, 48 h; untreated 40 ± 7. As for the experimental part:
as §1

Assay [7] relates to A375 cells. The experiment in a line: Scratch (wound healing) test, A375. As to conditions: A375, treated cells, IC50 dose, 48 h; control decreased from 172 ± 69 to 127 ± 13. How it is done:
as §2, §3, §4

Assay [8] deals with A375 cells. As to the kind of experiment: Caspase activation (ApoStat), A375. Conditions: A375, 48 h. How it is done: (§6) The results were ex pressed as a p er centage of a v alue obtained for the untr eated control cells that was arbitrarily set to be 100%. A non- linear regression analysis of obtained results was done b y using Gr aphPad Prism software to calculat e IC50 values.
3.3. AnnexinV-FITC/P I and caspase det ection.
A375 cells were treated with 5 for 48 h, trypsinized, and stained with AnnexinV-FITC (Ann) or propidium iodide (PI), or apostat as proposed by the manufacturer. C ells were anal yz ed b y C yFlow® Space Part ec u sing the PartecFloM ax ® software.
(§7) 3.4. Cell staining with CFSE.
as §3
(§8) subsequentl y quantified using flow c ytomet r y.
(§9) Cell motilit y and proliferation was anal yz ed using wound healing assa y. A375 and 518A2 cells were cultivated in 6-well plates until 80% of confluence in monola yers w as reached. Th e scratch was made using a steri le pipette tip which was drawn across the center of the wells. The scratch ed cell la yers w ere wash ed twice with fres h PBS to remove loose or damaged cells. Cells […]
(§10) 4% paraformald eh yde (PFA) for 10 min at room temperature . The wounds were digitally photographed using a Ni kon inverted microscope TS2 with 5 MPIX cam era.
(§11) 3.6. Measurement of intracellular nitric oxide

The subject of assay [9] is A375 cells. The experiment in a line: Light microscopy of A375 cultures (oval vs. fibroblast-like cells). Conditions: A375, treated cells, 48 h. An excerpt: It is known that the A375 cell line has a heterogeneous morphology with a subpopulation of highly metastatic oval cells. […] Thus, it can be concluded that compound 5 affected the two populations in different manners with a stronger effect on the metastatic oval cells.

Assay [10] deals with A375 cells. The experiment in a line: Ann/PI double staining apoptosis, A375. As for the experimental part: as §6
3.3. AnnexinV-FITC/P I and caspase det ection. […]
C ells were anal yz ed b y
C yFlow® Space Part ec u sing the PartecFloM ax ® software.
as §7, §3, §8, §9, §10, §11

The test system of assay [11] is 518A2 cells. As to the kind of experiment: Fluorescence microscopy of DAPI-stained cells, 518A2. As to conditions: 518A2, 72 h. How it is done:
as §5

The test system of assay [12] is 518A2 cells. The experiment in a line: Intracellular ROS/RNS (DHR), 518A2. Conditions: 518A2, 48 h; untreated 70.7 ± 5.5. As for the experimental part: as §1

For “4-[4-(methylnitrooxy)phenyl]-3-(1,2-dicarba-closo-dodecaboranyl)furan-2(5 H)-one [Compound 5]”, the “apoptosis (Ann/PI, caspase)” value in the assay with 518A2 cells [1] is on record as “strong caspase-dependent apoptosis”. Also, the “ROS/RNS production, mean fluorescence (DHR)” value with A375 cells [2] came to 32.67 ± 8; in the assay with 518A2 cells [12], 65.6 ± 0.9. Besides, the “elevation of % of undivided cells (CFSE) vs control” value in the assay on A375 cells [3] was 38 ± 8%. For the same substance, the “wound in scratch test” value in the assay on 518A2 cells [4] is “impossible to distinguish the edges of the wound”. Also, in the assay with A375 cells [5], the “oblong nuclei with condensed chromatin, typical for apoptosis (DAPI)” value turned out to be 25 ± 9%. Besides, the “intracellular NO, mean fluorescence (DAF)” value in the assay with A375 cells [6] stood at 60.5 ± 9.1. Also, the “wound width in scratch test” value in the assay on A375 cells [7] was determined as 177 ± 32 μm. The “total caspase activity (ApoStat)” value in the assay with A375 cells [8] was “only a slight enhancement of total caspase activity”. In addition, the “% of oval cells” value with A375 cells [9] (control 46 ± 2.8) was found to be 28 ± 2.6%. In addition, the “% of fibroblast-like cells” value with A375 cells [9] (control 54 ± 3.2) came out at 72 ± 7.4%. In addition, the “apoptosis (Ann/PI)” value with A375 cells [10] (A375, 48 h) is given as “did not promote significant apoptosis”. Moreover, in the assay on A375 cells [10] (A375, 72 h total), the “apoptosis after prolonged incubation” value is “not accompanied by the appearance of apoptotic cells”. Besides, in the assay with 518A2 cells [11], the “apoptotic shrunken nuclei and apoptotic bodies (DAPI)” value came out at 60 ± 2%.
